Experimental findings from ChEMBL document CHEMBL1201862, “PubChem BioAssay data set” (2004) are described below.

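Each compound was tested at five concentrations against cells in 96-well plates for 48 hours. GI50: concentration for 50% inhibition of growth.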 The source made the active and inactive calls. Cut-off read from the data, not from the text of the source: active = GI50 up to about 1.1 µM and inactive = higher.

Test in all cases: growth of human tumour cells (NCI), 48 h
Assay [1] relates to A498.
The subject of assay [2] is A549.
For assay [3], the system named is COLO 205.
Assay [4] concerns HCC 2998.
The test system of assay [5] is HCT-15.
Assay [6] relates to K562.
Assay [7] concerns KM12.
In assay [8] the test system is MCF7.
In assay [9] the test system is MDA-MB-231.
Assay [10] deals with MDA-N.
Assay [11] has as its system NCI-H522.
Assay [12] concerns OVCAR-5.
For assay [13], the system named is PC-3.
The test system of assay [14] is RPMI-8226.
For assay [15], the system named is SN12C.
For assay [16], the system named is SW-620.
Assay [17] has as its system TK-10.
In assay [18] the test system is U-251.
Assay [19] relates to UACC-62.
For assay [20], the system named is UO-31.

With `C[C@H](CCC(=O)O)[C@H]1CC[C@H]2[C@@H]3[C@H](O)C[C@@H]4C[C@H](O)CC[C@]4(C)[C@H]3CC[C@]12C` [CHENODIOL], the GI50 was 69.5 µM (inactive) in assay [1]; 34.8 µM (inactive) in assay [2]; 22.8 µM (inactive) in assay [3]; 28.9 µM (inactive) in assay [4]; 32.1 µM in [5]; 35.6 µM (inactive) in assay [6]. For the same compound, the GI50 is 33.3 µM (inactive) in [7]; 30.8 µM (inactive) in assay [8]; 49.3 µM (inactive) in assay [9]; 37.7 µM (inactive) in assay [10]; 25.5 µM (inactive) in assay [11]; 52.6 µM (inactive) in [12]. Moreover, the GI50 is 36.4 µM (inactive) in assay [13]; 22.6 µM (inactive) in assay [14]; 43.2 µM (inactive) in [15]; 41.7 µM (inactive) in assay [16]; 26.2 µM (inactive) in assay [17]; 37.6 µM (inactive) in assay [18]. Besides, the GI50 in assay [19] was 36.6 µM (inactive); in [20], 21.4 µM (inactive).

As to `CC(=O)Nc1ccc(C(O)/C(=N/N)c2nc3ccc(Cl)cc3nc2O)cc1` (stereo not given), the GI50 was > 100 µM (inactive) in [1]; > 100 µM (inactive) in [2]; > 100 µM (inactive) in assay [3]; > 100 µM (inactive) in [4]; greater than 100 µM in [5]; > 100 µM (inactive) in assay [7]. For the same compound, the GI50 in assay [8], in assay [9], in [10], in assay [11], in assay [12] and in [13] was > 100 µM (inactive) each time. The GI50 in [15], in [16], in [17], in assay [18], in assay [19] and in assay [20] was > 100 µM (inactive) in each case.

For `Nn1c(Cc2ccccc2)n[nH]c1=O`, the GI50 in assay [1] was > 100 µM (inactive); in assay [2], > 100 µM (inactive); in assay [3] it was > 100 µM (inactive); in assay [4] it was > 100 µM (inactive); in [5] it was greater than 100 µM; in [6], > 100 µM (inactive). Further, the GI50 in [7], in assay [8], in assay [9], in assay [10], in [11] and in [12] was > 100 µM (inactive) each time. Also, the GI50 in assay [13], in assay [14], in assay [15], in assay [16], in assay [17] and in assay [18] was > 100 µM (inactive) throughout. Besides, the GI50 in assay [19] and in assay [20] was > 100 µM (inactive) throughout.

As for `C=C1C(=O)O[C@@H]2C[C@@H]3[C@]4(CC[C@]5(C)[C@@H]([C@H](C)CC/C=C(\C)C=O)CC[C@@]35C)C[C@]4(CCC(=O)OC)[C@H]12`, the GI50 is 2.79 µM (inactive) in assay [1]; 6.64 µM (inactive) in [2]; 2.39 µM (inactive) in assay [3]; 2.14 µM (inactive) in [4]; 1.78 µM in [5]; 0.845 µM (active) in [6]. Moreover, the GI50 in assay [7] is 1.86 µM (inactive); in assay [8], 1.46 µM (inactive); in assay [9], 1.95 µM (inactive); in assay [10] it was 1.61 µM (inactive); in assay [11], 3.09 µM (inactive); in assay [12], 2.16 µM (inactive). In addition, the GI50 was 1.9 µM (inactive) in assay [13]; 0.295 µM (active) in assay [14]; 1.9 µM (inactive) in assay [15]; 1.72 µM (inactive) in [16]; 2.46 µM (inactive) in [17]; 1.38 µM (inactive) in assay [18]. The values for the GI50 in [19] and in [20] were 1.56 µM (inactive) and 2 µM (inactive), respectively.

As to `CSc1nc(-c2ccccc2)nc(C(C#N)C#N)n1`, the GI50 in assay [1] was > 100 µM (inactive); in assay [2], > 100 µM (inactive); in assay [3], > 100 µM (inactive); in assay [4], > 100 µM (inactive); in assay [5], greater than 100 µM; in assay [7], > 100 µM (inactive). Moreover, the GI50 in [8], in assay [9], in [10], in [11], in assay [12] and in assay [13] was > 100 µM (inactive) each time. In addition, the GI50 in [14], in [15], in assay [16], in [17], in [18] and in assay [19] was > 100 µM (inactive) in each case. In [20], the GI50 was 61.2 µM (inactive).

Take `COc1cc(OC2OC(COC(=O)c3cc(O)c(O)c(O)c3)C(O)C(O)C2O)ccc1O` (stereo not given): the GI50 was > 100 µM (inactive) in assay [1]; > 100 µM (inactive) in assay [2]; > 100 µM (inactive) in [3]; > 100 µM (inactive) in [4]; greater than 100 µM in assay [5]; 32.7 µM (inactive) in assay [6]. In addition, the GI50 in assay [7] was 88.1 µM (inactive); in [8] it was 53.8 µM (inactive); in assay [9], 34.5 µM (inactive); in [10], 30.5 µM (inactive); in assay [11] it was 48 µM (inactive); in assay [12] it was > 100 µM (inactive). Moreover, the GI50 in assay [13] was 26.2 µM (inactive); in assay [14], > 100 µM (inactive); in [15], 77.8 µM (inactive); in assay [16] it was 40.3 µM (inactive); in assay [17], 76.7 µM (inactive); in assay [18], > 100 µM (inactive). The GI50 in [20] is 33.2 µM (inactive).

`O=C(C(Cl)=C(N1CCCCC1)N1CCCCC1)C(Cl)Cl`: the GI50 in assay [1] is > 100 µM (inactive); in [2], > 100 µM (inactive); in assay [3], > 100 µM (inactive); in assay [4], > 100 µM (inactive); in assay [5] it was greater than 100 µM; in assay [6], > 100 µM (inactive). Moreover, the GI50 in assay [7], in assay [8], in assay [9], in assay [10], in assay [11] and in assay [13] was > 100 µM (inactive) in each case. Moreover, the GI50 in assay [14], in assay [15], in [16], in assay [17], in assay [19] and in assay [20] was > 100 µM (inactive) in each case.

For `CC(C)=CCC[C@]1(C)C=Cc2c(O)c3c(c(CC=C(C)C)c2O1)O[C@]12C(=C[C@@H]4CC1C(C)(C)O[C@@]2(C/C=C(/C)C(=O)O)C4=O)C3=O`, the GI50 is 1.73 µM (inactive) in assay [1]; 0.863 µM (active) in [2]; 1.34 µM (inactive) in assay [4]; 0.813 µM in assay [5]; 0.676 µM (active) in assay [6]; 1.02 µM (active) in [7]. The GI50 in assay [8] was 0.376 µM (active); in assay [9] it was 1.07 µM (active); in [10], 0.47 µM (active); in assay [11] it was 0.406 µM (active); in assay [12] it was 1.5 µM (inactive); in [13] it was 0.802 µM (active). Also, the GI50 in [14] is 0.368 µM (active); in [15] it was 0.719 µM (active); in [16] it was 0.452 µM (active); in [17], 0.861 µM (active); in assay [18] it was 0.676 µM (active); in assay [19], 1.73 µM (inactive). Besides, the GI50 in assay [20] is 1.33 µM (inactive).

As to `C=C(C)C12CC(COC(=O)c3ccccc3)C34OC5(OC1C3C1OC1(CO)C(O)C1(O)C(OC(=O)c3ccccc3)C(C)C(C(C)CCCCCCC5O)C14)O2` (stereo not given), the GI50 was 60.4 µM (inactive) in assay [1]; < 0.01 µM (active) in [3]; < 0.01 µM (active) in assay [4]; 54 µM in assay [5]; < 0.01 µM (active) in assay [6]; 40.8 µM (inactive) in [7]. Besides, the GI50 is 72.6 µM (inactive) in assay [8]; > 78.2 µM (inactive) in [9]; 25.9 µM (inactive) in assay [10]; 46.5 µM (inactive) in assay [11]; 88.7 µM (inactive) in assay [12]; 38.8 µM (inactive) in assay [13]. Besides, the GI50 in assay [14] is 18.8 µM (inactive); in assay [15], 37.8 µM (inactive); in assay [17], < 0.01 µM (active); in assay [18], 32.6 µM (inactive); in assay [19] it was > 100 µM (inactive); in assay [20] it was 70.1 µM (inactive).

On to `CNC(=S)NN=C1NCCCCN1`, for which the GI50 in [1] was > 100 µM (inactive); in assay [2] it was > 100 µM (inactive); in assay [3] it was > 100 µM (inactive); in assay [4] it was > 100 µM (inactive); in assay [5], greater than 100 µM; in assay [6] it was > 100 µM (inactive). The GI50 in [7], in assay [8], in assay [9], in assay [10], in [11] and in assay [12] was > 100 µM (inactive) in each case. The GI50 in assay [13], in assay [14], in [16], in [17], in assay [18] and in [19] was > 100 µM (inactive) throughout. For the same compound, in assay [20], the GI50 was > 100 µM (inactive).
